Test results as given in patent US7429564B2, “Oral insulin therapy” (Emisphere Technologies, Inc., priority 2002, dated 2008).
Read-outs that look alike come from different tables or passages of the source.

Test: Example 5: 4-CNAB plasma pharmacokinetics, single oral doses, healthy male volunteers
Assay type: in vivo, human
Settings: for AUC(0-inf) / AUC(0-t) / Cmax / MRT inf / Vd/F / half-life / Tmax / MRT / MRT last: male, human, plasma; for AUC(0-inf) / AUC(0-t) / Cmax / MRT inf / Vd/F / half-life / Tmax / MRT: po; for MRT inf: read-out: 4-CNAB MRT(0-inf); for half-life: read-out: 4-CNAB t1/2 (converted); for MRT: read-out: 4-CNAB MRT(0-f); for MRT last: read-out: 4-CNAB MRT(0-t)
Method: A single center, double-blind, randomized placebo-controlled study undertaken in healthy human subjects in order to assess the safety and tolerability of escalating single oral doses of 4-CNAB capsules and insulin/4-CNAB capsules.
Within each treatment period in each group, eight subjects were planned to receive active treatment and two subjects to receive placebo. In Group 1, there were four escalating single doses of 4-CNAB (400, 800, 1400 and 2000 mg) and each subject received either all four of these escalating doses or three escalating single doses and one dose of placebo. […] In Group 3 there were three escalating oral doses of Insulin/4-CNAB (100 Units/300 mg, 100 Units/450 mg and 150 Units/100 mg) and one SC dose of 150 Units of insulin. Each subject received either all four of these treatments or three of these treatments and one placebo treatment. For all groups, there was a washout period of at least 72 hours between treatment periods.
The concentration of 4-CNAB in plasma was determined using a combination of liquid chromatography and Mass spectrometry assay known as LC-MS/MS. The method involves protein precipitation followed by separation on liquid chromatography using a Hypersil BDS column and a mobile phase consisting of methanol and acetate buffer. The eluting peaks were quantified by MS/MS. The equipment used for the determination of 4-CNAB in plasma comprises of an Agilent 1100 modular HPLC system with a Micromass Quattro Micro MS/MS detector. HPLC and AR grade chemicals and reagents were used throughout the study.
On the basis of plasma concentrations of 4-CNAB and insulin, PK analysis was performed using non-compartmental PK methods as implemented in WinNonlin™ Professional version 3.2. The profiles for insulin and C-peptide corrected insulin were evaluated up to 6 hours as food was given 6 hours following insulin treatment. The following parameters were derived for 4-CNAB: Cmax, tmax, AUC(0-t), AUC(0-inf), AUC% Extrap, Kel, t1/2, CL/F, Vd/F, MRT(0-t), MRT(0-inf) and Frel. The following parameters were derived for insulin and C-peptide corrected insulin: Cmax, tmax, AUC(0-2), AUC(0-6), AUC(0-t) and concentrations (C^b) and corresponding time (t^b) immediately prior to intervention for hypoglycemia.

[1] = 2000 mg, 4-CNAB alone 2000 mg oral
[2] = with insulin, 100 Units/300 mg oral
[3] = with insulin, 100 Units/450 mg oral
[4] = with insulin, 100 Units/600 mg oral
[5] = with insulin, 150 Units/100 mg oral
[6] = with insulin, 150 Units/200 mg oral

## O=C(O)CCCNC(=O)c1ccc(Cl)cc1O [4-CNAB, 4-[(4-chloro, 2-hydroxybenzoyl)amino]butanoic acid]
[1]
  AUC(0-inf): 192000 ± 37100 ng·h/mL
  AUC(0-t): 204000 ± 103000 ng·h/mL
  Cmax: 135000 ± 86600 ng/mL
  MRT inf: 7.45 ± 2.36 h
  half-life: 15.3 ± 6.9 h
2000 mg, 4-CNAB alone 2000 mg oral, read-out: 4-CNAB Vd/F
  Vd/F: 245 ± 131 L
2000 mg, 4-CNAB alone 2000 mg oral, read-out: 4-CNAB tmax, median (range)
  Tmax: 0.75 h
[2]
  AUC(0-inf): 9240 ± 5940 ng·h/mL
  AUC(0-t): 8740 ± 5520 ng·h/mL
  Cmax: 8900 ± 6350 ng/mL
  MRT: 1.51 ± 0.16 h
  MRT inf: 2.43 ± 0.82 h
  half-life: 5.3 ± 3.3 h
  4-CNAB Cl/F: 834 ± 527 mL/min
  4-CNAB Kel: 0.19 ± 0.12 h⁻¹
With insulin, 100 Units/300 mg oral, read-out: 4-CNAB Vz/F
  Vd/F: 324 ± 239 L
With insulin, 100 Units/300 mg oral, read-out: 4-CNAB tmax, median
  Tmax: 0.5 h
[3]
  AUC(0-inf): 26800 ± 4560 ng·h/mL
  AUC(0-t): 26000 ± 4410 ng·h/mL
  Cmax: 23200 ± 7930 ng/mL
  MRT: 1.79 ± 0.5 h
  MRT inf: 2.3 ± 0.46 h
  half-life: 4.1 ± 1.2 h
  4-CNAB Cl/F: 287 ± 49 mL/min
  4-CNAB Kel: 0.185 ± 0.06 h⁻¹
With insulin, 100 Units/450 mg oral, read-out: 4-CNAB Vz/F
  Vd/F: 101 ± 35 L
With insulin, 100 Units/450 mg oral, read-out: 4-CNAB tmax, median
  Tmax: 0.5 h
[4]
  AUC(0-inf): 37600 ± 5430 ng·h/mL
  AUC(0-t): 36600 ± 5760 ng·h/mL
  Cmax: 35800 ± 12300 ng/mL
  MRT: 1.45 ± 0.17 h
  MRT inf: 1.9 ± 0.58 h
  half-life: 4.1 ± 1.2 h
  4-CNAB Cl/F: 271 ± 38 mL/min
  4-CNAB Kel: 0.19 ± 0.06 h⁻¹
With insulin, 100 Units/600 mg oral, read-out: 4-CNAB Vz/F
  Vd/F: 96 ± 35 L
With insulin, 100 Units/600 mg oral, read-out: 4-CNAB tmax, median
  Tmax: 0.5 h
[5]
  AUC(0-inf): 4920 ± 1100 ng·h/mL
  AUC(0-t): 4680 ± 1080 ng·h/mL
  Cmax: 6200 ± 3600 ng/mL
  MRT: 1.42 ± 0.56 h
  MRT inf: 2.39 ± 1.39 h
  half-life: 4.8 ± 3.4 h
  4-CNAB Cl/F: 352 ± 68 mL/min
  4-CNAB Kel: 0.22 ± 0.14 h⁻¹
With insulin, 150 Units/100 mg oral, read-out: 4-CNAB Vz/F
  Vd/F: 148 ± 102 L
With insulin, 150 Units/100 mg oral, read-out: 4-CNAB tmax, median
  Tmax: 0.5 h
[6]
  AUC(0-inf): 10300 ± 2080 ng·h/mL
  AUC(0-t): 10000 ± 1890 ng·h/mL
  Cmax: 10100 ± 5090 ng/mL
  MRT: 1.59 ± 0.23 h
  MRT inf: 1.97 ± 0.39 h
  half-life: 3.2 ± 1.4 h
  4-CNAB Cl/F: 338 ± 75 mL/min
  4-CNAB Kel: 0.25 ± 0.09 h⁻¹
With insulin, 150 Units/200 mg oral, read-out: 4-CNAB Vz/F
  Vd/F: 89 ± 35 L
With insulin, 150 Units/200 mg oral, read-out: 4-CNAB tmax, median
  Tmax: 0.5 h
4-CNAB alone 400 mg oral
  MRT last: 1.6 ± 0.23 h
4-CNAB alone 800 mg oral
  MRT last: 1.75 ± 0.22 h
4-CNAB alone 1400 mg oral
  MRT last: 1.6 ± 0.2 h
4-CNAB alone 2000 mg oral
  MRT last: 1.73 ± 0.31 h
